The values that follow come from US4307036A, “Method for preparing a mixture of stereoisomers of α-cyano-3-phenoxybenzyl 2-(4-substituted-phenyl)isovalerates” (Sumitomo Chemical Company, Limited, priority 1978, dated 1981).

Structures are written as SMILES. Converted amounts (≈) assume the structure as drawn.

For series [1], the system named is Houseflies (Musca domestica Linne). The series can be described thus: Spray test of difluoromethoxy esters on housefly (Test Example 6 A). The format is in vivo. As to the method:
(§1) Insecticidal activity of α-cyano-3-phenoxybenzyl 2-(4-difluoromethoxyphenyl)isovalerates on housefly, pea aphid and corn earworm
A. Housefly: Houseflies (Musca domestica Linne) were tested by placing 50 4- to 5-day old houseflies into spray cages and spraying with 0.6 ml of a solution of test compound. After spraying, the flies were anesthetized with CO2 and transferred to a recovery cage containing a milk pad for food. The cages were held for 18-20 hours after which mortality counts were made. Both dead and moribund were counted. The tests were conducted employing several different dosage rates of each test compound.
(§2) In each instance, the toxicity of the compound of the invention was compared to that of a standard pesticide (Parathion), its relative toxicity then being expressed in terms of the relationship between the amount of compound of the invention and the amount of the standard pesticide required to produce the same percentage (50) of mortality in the test insects or acarine. By assigning the standard pesticide an arbitrary rating of 100, the toxicities of the compounds of the invention were expressed in terms of the toxicity indexes, which compares the toxicity of the compounds of the invention with that of the standard pesticide.

Series [2] concerns Pea aphids (Acyrthosiphon pisum Harris). The series can be described thus: Spray test of difluoromethoxy esters on pea aphid (Test Example 6 B). The format is in vivo. The protocol:
as §1
B. Pea Aphid: Pea aphids (Acyrthosiphon pisum Harris) were tested by placing about 100 aphids on broad bean plants. The plants were sprayed with dilutions of acetone solution of test compound into water containing an emulsifier and held in containers under laboratory conditions for 18 to 20 hours at which time the living aphids in the containers were counted. The tests were conducted employing several different dosage rates of each test compound.
as §2

The test system of series [3] is Corn earworm larvae (Heliothis zea Boddie). The series can be described thus: Spray test of difluoromethoxy esters on corn earworm larvae (Test Example 6 C). Type of series: in vivo. The protocol:
as §1
C. Corn Earworm: Corn earworm larvae (Heliothis zea Boddie) were tested by spraying broad bean plants with dilutions of acetone solution of test compound into water containing an emulsifier. Immediately after spraying, 5 larvae were transferred to each plant and held for 44-46 hours, at which time the dead and moribund larvae were counted. The tests were conducted employing several different dosage rates for each test compound.
as §2

For series [4], the system named is tobacco cut worm (Spodoptera litura). The series can be described thus: Insecticidal activity of difluoromethoxy esters on tobacco cut worm, leaf dip, 24 h (Test Example 7). Type of series: in vivo. The settings on record: foliar, read-out: LC50 (concentration required for 50% death). The source says: Insecticidal activity of α-cyano-3-phenoxybenzyl 2-(4-difluoromethoxyphenyl)isovalerates on tobacco cut worm (Spodoptera litura)
Emulsifiable concentrates of difluoromethoxy ester Y and Y-rich difluoromethoxy ester formulated according to Preparation Example 12 and a 20% emulsifiable concentrate of common difluoromethoxy ester formulated in the same manner were each diluted with water to a predetermined concentration, and mixed with a spreader (Shin-Rino, a registered trademark of Nippon Noyaku Co.) of 3,000 times by weight based on the diluted liquor.
(§3) The dried leaves were placed in a plastic cup (diameter 10 cm, height 4 cm) at a rate of 2 leaves/cup, and the fourth instar larvae of tobacco cut worms were liberated therein. The dead and alive were examined after 24 hours and the values of LC50 (concentration required for 50% death) were obtained.
(§4) Experiments of three replications were carried out using 10 larvae per group.

For series [5], the system named is housefly (Musca domestica). The series can be described thus: Insecticidal activity of methoxy and ethoxy esters on housefly, topical application, 24 h (Test Example 8). The format is in vivo. The settings on record: CSMA-strain female adults, 0.5 μl to ventral thorax. The protocol: Insecticidal activity of S phenylisovalerates (methoxy and ethoxy esters) on housefly (Musca domestica)
Each of S phenylisovalerate Y's and Y-rich S phenylisovalerates obtained in Examples 21 to 24 and common racemates was diluted with acetone to a pre-determined concentration, and 0.5 μl of the solution was applied to the ventral thorax of CSMA-strain housefly female adults by means of a microsyringe. The adults were then liberated in a plastic cup (diameter 11 cm) wherein a bait (3% sugar water) was placed. The dead and alive were examined after 24 hours, and the values of LD50 were obtained.

For series [6], the system named is tobacco cut worm (Spodoptera litura). Description: Insecticidal activity of fenvalerates on tobacco cut worm, leaf dip, 24 h (Test Example 1). Type of series: in vivo. The settings on record: for Relative Efficacy: Activity of Fenvalerate (common product) was taken as 100; for LC50: Spodoptera litura, foliar, 24 h, read-out: LC50 (concentration required for 50% death); for LC50 / LC50 (concentration required for 50% death): fourth instar larvae, 24 hours, 20% emulsifiable concentrate diluted; for LC50 (concentration required for 50% death): 1440 min.
Excerpt: Insecticidal activity of fenvalerates on tobacco cut worm (Spodoptera litura)
Fenvalerate Y obtained in Example 4, fenvalerate Y-rich fenvalerate obtained in Examples 5 and 6 and common fenvalerate were formulated into a 20% emulsifiable concentrate as usual (Composition: above pesticide 20%; xylene 70%; and Sorpol 3005X (a registered trademark of Toho Kagaku Co.) 10%). These emulsifiable concentrates were each diluted with water to a pre-determined concentration, and mixed with a spreader (Shin-Rino, a registered trademark of Nippon Noyaku Co.) of 3,000 times by weight based on the diluted liquor.
as §3, §4

The subject of series [7] is housefly (Musca domestica). The series can be described thus: Insecticidal activity of fenvalerates on housefly, topical application, 24 h (Test Example 2). The note with it: for Relative Efficacy: Activity of Fenvalerate (common product) was taken as 100; for LD50: CSMA-strain female adults, 0.5 μl to ventral thorax, 24 hours. The format is in vivo. The protocol:
Insecticidal activity of fenvalerates on housefly (Musca domestica)
Each pesticide used in Examples 4 and 5 was diluted with acetone to a pre-determined concentration, and 0.5 μl of the solution was applied to the ventral thorax of CSMA-strain housefly female adults by means of a microsyringe. The adults were then liberated in a plastic cup (diameter 11 cm) wherein a bait (3% sugar water) was placed. The dead and alive were examined after 24 hours, and the values of LD50 were obtained.

Series [8] is described as follows: Solubility, general statement. The format is physicochemical. The settings on record: compared with fenvalerate Aα.
The conditions of series [9]: reported in literature; cited from earlier work.
The nature of series [10]: Insecticidal and acaricidal activity, general statements. The format is in vivo. The settings on record: diastereomers separated by recrystallization from hexane.
Where [11] appears, read: Parathion = 100, 50% mortality, 18-20 hours, * High Knockdown.
Where [12] appears, read: Parathion = 100, 50% mortality, 18 to 20 hours, * High Knockdown.
The mark [13] stands for this setting: Parathion = 100, 50% mortality, 44-46 hours, * High Knockdown.
Where [14] appears, read: fourth instar larvae, 24 hours, emulsifiable concentrate diluted.

For `CC(C)C(C(=O)OC(C#N)c1cccc(Oc2ccccc2)c1)c1ccc(OC(F)F)cc1` (racemic) [Common Difluoromethoxy Ester, α-cyano-3-phenoxybenzyl 2-(4-difluoromethoxyphenyl)isovalerate], the “Toxicity Index” value in [1] (setting [11]) is recorded as 219; in series [2] (setting [12]), 582; in series [3] (setting [13]), 773. Besides, in [4] (setting [14]), the LC50 came to 23 µg/mL (≈ 50.9 µM).
In turn, `CCOc1ccc(C(C(=O)OC(C#N)c2cccc(Oc3ccccc3)c2)C(C)C)cc1` (racemic) [Common Ethoxy Ester (racemate), α-cyano-3-phenoxybenzyl 2-(4-ethoxyphenyl)isovalerate] showed an LD50 in [5] of 0.54 μg/housefly.
With `COc1ccc(C(C(=O)OC(C#N)c2cccc(Oc3ccccc3)c2)C(C)C)cc1` (racemic) [Common Methoxy Ester (racemate), α-cyano-3-phenoxybenzyl 2-(4-methoxyphenyl)isovalerate], in [5], the LD50 was determined as 0.35 μg/housefly.
With `CC(C)[C@H](C(=O)O[C@H](C#N)c1cccc(Oc2ccccc2)c1)c1ccc(OC(F)F)cc1` (relative stereo) [Difluoromethoxy Ester Y, α-cyano-3-phenoxybenzyl 2-(4-difluoromethoxyphenyl)isovalerate], in series [4] (24 h), the LC50 stood at 12 µg/mL (≈ 26.6 µM).
For `CCOc1ccc([C@@H](C(=O)O[C@H](C#N)c2cccc(Oc3ccccc3)c2)C(C)C)cc1` (relative stereo) [Ethoxy Ester Y, α-cyano-3-phenoxybenzyl 2-(4-ethoxyphenyl)isovalerate], the LD50 in series [5] is 0.28 μg/housefly.
Regarding `CC(C)[C@H](C(=O)O[C@H](C#N)c1cccc(Oc2ccccc2)c1)c1ccc(Cl)cc1` (relative stereo) [Example 4], in series [6], the “Relative Efficacy” value is 195 and the LC50 amounted to 3.8 µg/mL (≈ 9.05 µM). For the same compound, in series [7], the “Relative Efficacy” value is given as 207 and the LD50 was determined as 0.015 μg/housefly.
`COc1ccc([C@@H](C(=O)O[C@H](C#N)c2cccc(Oc3ccccc3)c2)C(C)C)cc1` (relative stereo) [Methoxy Ester Y, α-cyano-3-phenoxybenzyl 2-(4-methoxyphenyl)isovalerate] showed an LD50 in series [5] of 0.17 μg/housefly.
Consider `CC(C)[C@H](C(=O)O[C@@H](C#N)c1cccc(Oc2ccccc2)c1)c1ccc(OC(F)F)cc1` (relative stereo) [Same, X Isomer Pair, α-cyano-3-phenoxybenzyl 2-(4-difluoromethoxyphenyl)isovalerate], for which the “Toxicity Index” value in series [1] (setting [11]) turned out to be 47; in series [2] (setting [12]), 45; in series [3] (setting [13]) it was 106.
`CC(C)[C@H](C(=O)O[C@H](C#N)c1cccc(Oc2ccccc2)c1)c1ccc(OC(F)F)cc1` (relative stereo) [Same, Y Isomer Pair, α-cyano-3-phenoxybenzyl 2-(4-difluoromethoxyphenyl)isovalerate]: the results for the “Toxicity Index” value in [1] (in vivo), in series [2] (in vivo) and in series [3] (in vivo) were 1100, 1273 and 1544, respectively.
For the compound `CC(C)[C@H](C(=O)O[C@H](C#N)c1cccc(Oc2ccccc2)c1)c1ccc(Cl)cc1` (relative stereo) [fenvalerate Y], the solubilities entry in series [8] is “greater than those of fenvalerate Aα”. Further, the “insecticidal and acaricidal activity” value in [9] was “highly active pesticide”.
For the compound `CC(C)C(C(=O)OC(C#N)c1cccc(Oc2ccccc2)c1)c1ccc(Cl)cc1` (stereo not shown) [Example 5], in series [6], the “Relative Efficacy” value is given as 172 and the LC50 came out at 4.3 µg/mL (≈ 10.2 µM). In addition, in [7], the “Relative Efficacy” value came out at 172 and the LD50 was found to be 0.018 μg/housefly.
On to `CC(C)C(C(=O)OC(C#N)c1cccc(Oc2ccccc2)c1)c1ccc(Cl)cc1` (stereo not shown) [Example 6], for which, in series [6], the “Relative Efficacy” value was found to be 125 and the “LC50 (concentration required for 50% death)” value was 5.9 ppm.
For the compound `CC(C)C(C(=O)OC(C#N)c1cccc(Oc2ccccc2)c1)c1ccc(Cl)cc1` (stereo not drawn) [Fenvalerate (common product), α-Cyano-3-phenoxybenzyl 2-(4-chlorophenyl)isovalerate, reference compound], in [6], the “Relative Efficacy” value is recorded as 100 and the “LC50 (concentration required for 50% death)” value was found to be 7.4 ppm. Further, in [7], the “Relative Efficacy” value turned out to be 100 and the LD50 was 0.031 μg/housefly.
As to `CC(C)C(C(=O)OC(C#N)c1cccc(Oc2ccccc2)c1)c1ccc(OC(F)F)cc1` (stereo not drawn) [Y-Rich Difluoromethoxy Ester, α-cyano-3-phenoxybenzyl 2-(4-difluoromethoxyphenyl)isovalerate], the LC50 in [4] (setting [14]) was determined as 14 µg/mL (≈ 31 µM).
With `CCOc1ccc(C(C(=O)OC(C#N)c2cccc(Oc3ccccc3)c2)C(C)C)cc1` (stereo not drawn) [Y-Rich Ethoxy Ester, α-cyano-3-phenoxybenzyl 2-(4-ethoxyphenyl)isovalerate], the LD50 in series [5] is 0.46 μg/housefly.
On the same count and under the same terms, the figure for `COc1ccc(C(C(=O)OC(C#N)c2cccc(Oc3ccccc3)c2)C(C)C)cc1` (stereo not drawn) [Y-Rich Methoxy Ester, α-cyano-3-phenoxybenzyl 2-(4-methoxyphenyl)isovalerate] is 0.20 μg/housefly.
For the compound `C#CC(OC(=O)C(c1ccc(Cl)cc1)C(C)C)c1cccc(Oc2ccccc2)c1` (stereo not drawn) [diastereomer (m.p. 51°-52° C.), α-ethynyl-3-phenoxybenzyl 2-(4-chlorophenyl)isovalerate], the insecticidal activity result in series [10] was “higher insecticidal activity”.
For `C#CC(OC(=O)C(c1ccc(Cl)cc1)C(C)C)c1cccc(Oc2ccccc2)c1` (stereo not drawn) [diastereomer having a melting point of 87° to 88° C., α-ethynyl-3-phenoxybenzyl 2-(4-chlorophenyl)isovalerate], the insecticidal activity entry in [10] is listed as “very weak insecticidal activity”.
On to `CC(C)[C@H](C(=O)O[C@H](C#N)c1cccc(Oc2ccccc2)c1)c1ccc(Cl)cc1` [fenvalerate Aα, (S)-α-cyano-3-phenoxybenzyl (S)-2-(4-substituted-phenyl)isovalerate], for which the “insecticidal and acaricidal activity” value in series [9] is recorded as “the most active stereoisomer of the four”.
